ChEMBL document CHEMBL1201862, “PubChem BioAssay data set” (2004)
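In this assay, cells in 96-well plates receive the compound at five concentrations for 48 hours. Endpoints are linearly interpolated between the surrounding concentrations. GI50: concentration for 50% inhibition of growth.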 Activity calls are given as the source filed them. Rule as the data show it: active = GI50 up to about 1.1 µM and inactive = higher.

What was measured:
Test in all cases: DTP human tumour cell line panel, 48 h
A498 = system: A498
DMS-273 = system: DMS-273
EKVX = system: EKVX
HCT-15 = system: HCT-15
HOP-92 = system: HOP-92
LOX IMVI = system: LOX IMVI
NCI-H23 = system: NCI-H23
NCI/ADR-RES = system: NCI/ADR-RES
OVCAR-4 = system: OVCAR-4
OVCAR-5 = system: OVCAR-5
SK-MEL-28 = system: SK-MEL-28
UACC-257 = system: UACC-257
786-0 = system: 786-0
A549 = system: A549
ACHN = system: ACHN
COLO 205 = system: COLO 205
DMS-114 = system: DMS-114
HCC 2998 = system: HCC 2998
HCT-116 = system: HCT-116
HL-60 = system: HL-60
HOP-62 = system: HOP-62
HT-29 = system: HT-29
IGROV-1 = system: IGROV-1
KM-20L2 = system: KM-20L2
KM12 = system: KM12
LXFL 529 = system: LXFL 529
M14 = system: M14
M19-MEL = system: M19-MEL
Malme-3M = system: Malme-3M
NCI-H226 = system: NCI-H226
NCI-H460 = system: NCI-H460
NCI-H522 = system: NCI-H522
OVCAR-3 = system: OVCAR-3
OVCAR-8 = system: OVCAR-8
RPMI-8226 = system: RPMI-8226
RXF 393 = system: RXF 393
SF-268 = system: SF-268
SF-295 = system: SF-295
SF-539 = system: SF-539
SK-MEL-5 = system: SK-MEL-5
SK-OV-3 = system: SK-OV-3
SN12C = system: SN12C
SNB-19 = system: SNB-19
SR = system: SR
SW-620 = system: SW-620
TK-10 = system: TK-10
U-251 = system: U-251
UACC-62 = system: UACC-62
UO-31 = system: UO-31
XF498 = system: XF498

## COc1ccc(N[C@@H]2c3cc4c(cc3C(c3cc(OC)c(O)c(OC)c3)[C@H]3C(=O)OCC32)OCO4)cc1OC (stereo partly specified)
A498
  GI50: > 100 µM (inactive)
DMS-273
  GI50: > 100 µM (inactive)
EKVX
  GI50: > 32.7 µM (inactive)
HCT-15
  GI50: > 100 µM
HOP-92
  GI50: > 100 µM (inactive)
LOX IMVI
  GI50: > 100 µM (inactive)
NCI-H23
  GI50: 0.297 µM (active)
NCI/ADR-RES
  GI50: > 19.9 µM (inactive)
OVCAR-4
  GI50: 20.3 µM (inactive)
OVCAR-5
  GI50: > 19.9 µM (inactive)
SK-MEL-28
  GI50: > 19.9 µM (inactive)
UACC-257
  GI50: 4.21 µM (inactive)

## CC12N=NN(c3ccc([N+](=O)[O-])cc3)C1(O)c1ccccc1C2=O (stereo unspecified)
786-0
  GI50: > 100 µM (inactive)
A549
  GI50: > 100 µM (inactive)
ACHN
  GI50: 48.5 µM (inactive)
COLO 205
  GI50: > 100 µM (inactive)
DMS-114
  GI50: > 100 µM (inactive)
DMS-273
  GI50: > 100 µM (inactive)
EKVX
  GI50: > 100 µM (inactive)
HCC 2998
  GI50: > 100 µM (inactive)
HCT-116
  GI50: > 100 µM (inactive)
HCT-15
  GI50: > 100 µM
HL-60
  GI50: > 100 µM (inactive)
HOP-62
  GI50: > 100 µM (inactive)
HT-29
  GI50: > 100 µM (inactive)
IGROV-1
  GI50: > 100 µM (inactive)
KM-20L2
  GI50: > 100 µM (inactive)
KM12
  GI50: > 100 µM (inactive)
LOX IMVI
  GI50: > 100 µM (inactive)
LXFL 529
  GI50: > 100 µM (inactive)
M14
  GI50: > 100 µM (inactive)
M19-MEL
  GI50: > 100 µM (inactive)
Malme-3M
  GI50: > 100 µM (inactive)
NCI-H226
  GI50: > 100 µM (inactive)
NCI-H23
  GI50: > 100 µM (inactive)
NCI-H460
  GI50: > 100 µM (inactive)
NCI-H522
  GI50: > 100 µM (inactive)
OVCAR-3
  GI50: > 100 µM (inactive)
OVCAR-8
  GI50: > 100 µM (inactive)
RPMI-8226
  GI50: > 100 µM (inactive)
RXF 393
  GI50: > 100 µM (inactive)
SF-268
  GI50: > 100 µM (inactive)
SF-295
  GI50: > 100 µM (inactive)
SF-539
  GI50: 70.1 µM (inactive)
SK-MEL-5
  GI50: > 100 µM (inactive)
SK-OV-3
  GI50: > 100 µM (inactive)
SN12C
  GI50: > 100 µM (inactive)
SNB-19
  GI50: > 100 µM (inactive)
SR
  GI50: > 100 µM (inactive)
SW-620
  GI50: > 100 µM (inactive)
TK-10
  GI50: > 100 µM (inactive)
U-251
  GI50: > 100 µM (inactive)
UACC-257
  GI50: > 100 µM (inactive)
UACC-62
  GI50: > 100 µM (inactive)
UO-31
  GI50: > 100 µM (inactive)
XF498
  GI50: > 100 µM (inactive)
